Experimental data: patent US12679849B2, “Macrocyclic compounds as STING agonists” (LUPIN LIMITED, priority 2019, dated 2026)

Tests used:
IFNβ = test: Cytokine (IFNβ) secretion in serum samples from CT-26 tumor bearing BALB/c mice; assay type: in vivo, mouse; conditions: serum of CT-26 tumor-bearing BALB/c mice, 0.5 mg/kg, 3.5 h
Description: Quantification of the Cytokine Secretion in Serum Samples from the CT-26 Tumor Bearing BALB/c Mice
CT-26 tumor-bearing animals were administered with test compounds at the dose of 0.5 mg/kg, in a dose-volume of 5 ml/kg. Serum samples were collected at designated time points (3.5 h) and frozen at −80° C. till further estimation. Mouse serum samples were diluted appropriately with dilution buffer before estimation of IFNβ utilizing commercially available kits (VeriKine Mouse IFN Beta ELISA, PBL assay science, Catalog No 42400-2). Raw data values were corrected with the dilution factor and finally expressed in pg/mL.

Human STING = target: T1, Human STING (Homo sapiens, UniProt Q86WV6, G230A/H232R/R293Q/R71H); test: Stimulation of human STING signalling in THP1-Blue ISG SEAP reporter cell line; assay type: cell-based; conditions: THP1-Blue ISG cells, 18-20 hours incubation
T1 construct: using human THP1-Blue™ ISG SEAP based reporter cell line (Invivogen); host or cells: THP1-Blue ISG (human monocytic THP-1 derived SEAP reporter line)
Description: Stimulation of Human STING Signalling in THP1 Cell Line
Compounds were tested for their STING activation potential using human THP1-Blue™ ISG SEAP based reporter cell line (Invivogen). Briefly, THP1-Blue ISG cells (100,000 cells/well) in 96 well plate were treated with varying concentrations of test and reference compounds and incubated at 37° C. with 5% CO2 for 18-20 hours. The control untreated cells were also set up. Post incubation, the cell supernatant was tested for SEAP (Secreted Embryonic Alkaline Phosphatase) activity using the QuantiBlue™ substrate reagent (Invivogen). The formation of blue coloured product was quantified by measuring absorbance at wavelength of 620 nm using PheraStar/Tecan reader. The average of duplicate readouts for each data point was plotted in GraphPad prism 6 against the concentration of test or reference compound to calculate EC50 value. The fold of SEAP induction or increase in luminescence at different data points was estimated against the un-stimulated cell control set.

T1 sequence (Q86WV6 whole entry R71H/G230A/H232R/R293Q): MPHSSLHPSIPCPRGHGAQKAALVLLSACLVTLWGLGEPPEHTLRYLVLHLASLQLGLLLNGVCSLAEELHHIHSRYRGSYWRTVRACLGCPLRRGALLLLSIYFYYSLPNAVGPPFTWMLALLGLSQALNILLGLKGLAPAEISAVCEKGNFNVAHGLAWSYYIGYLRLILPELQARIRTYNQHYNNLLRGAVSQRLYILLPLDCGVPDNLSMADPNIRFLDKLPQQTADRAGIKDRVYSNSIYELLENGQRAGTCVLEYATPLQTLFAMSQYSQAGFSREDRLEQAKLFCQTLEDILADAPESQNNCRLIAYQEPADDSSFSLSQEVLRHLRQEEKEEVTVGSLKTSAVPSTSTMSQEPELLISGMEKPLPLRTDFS

CCn1nc(C)cc1C(=O)Nc1nc2cc(C(N)=O)cc3c2n1C/C=C/Cn1c(NC(=O)c2cc(C)nn2CC)nc2cc(C(N)=O)cc(c21)OCC(N1C2CCC1COC2)CO3 [Compound 2, (E)-8-(3-oxa-8-azabicyclo[3.2.1]octan-8-yl)-1,15-bis(1-ethyl-3-methyl-1H-pyrazole-5-carboxamido)-8,9,16,19-tetrahydro-7H-6,10-dioxa-2,14,15a,19a-tetraazacyclopentadeca[3,2,1-cd:8,9,10-c′d′]diindene-4,12-dicarboxamide]
IFNβ secretion (IFNβ): 28305 pg/mL
EC50 (Human STING): 1 to 10 nM
